This assay deals with eNOS promoter. The assay is described as follows: Activation of eNOS transcription (eNOS promoter-luciferase reporter gene assay). The settings on record: human endothelial cell line stably transfected with eNOS promoter-luciferase construct, 18 h incubation, determined graphically; read-out: EC50 values of transcription induction ratios (TIR). The class given is cell-based. Here is the method:
Activation of eNOS transcription was measured as described in detail by L^1 et al., “Activation of protein kinase C alpha and/or epsilon enhances transcription of the human endothelial nitric oxide synthase gene”, Mol. Pharmacol. 53 (1998) 630. Briefly, a 3.5 kB long fragment 5′ of the starting codon of the eNOS gene was cloned, sequenced and cloned in firefly luciferase expression plasmids to monitor activation of the eNOS promoter by reporter gene activity. A human endothelial cell line stable transfected and expressing this promoter-reporter construct was used for compound testing. Cells were incubated for 18 h with the compounds.
All compounds were dissolved in sterile dimethyl sulfoxide (DMSO). A final concentration of 0.5% DMSO in complete medium was allowed. Induction of reporter gene expression in these cells was measured using a standard luciferase assay system (Promega, Cat. No. E150) according to the manufacturer's instructions. Luciferase induction in cells incubated with compounds were compared to those incubated with solvent alone. The ratio of both activities (transcription induction ratio, TIR) was plotted as a function of compound concentration. Typically, TIR values started at low concentrations at a ratio of 1, indicating no compound effect, and extended up to a maximum TIR value TIR(max) which indicates the increase of the eNOS transcription. EC50 values of transcription induction ratios as a function of compound concentration were determined graphically.
For orientation: In a reporter assay the amount or activity of a reporter protein is the signal.
For the compound `O=C1CSC=CN1CCCc1ccc(-c2ccc(F)cc2)nc1` [Example 25, 4-(3-(6-(4-Fluorophenyl)pyridin-3-yl)propyl)-4H-[1,4]thiazin-3-one], the EC50 is less than 500 nM. As for `O=C1CSCCN1CCCc1ccc(-c2ccccc2Cl)nc1` [Example 7, 4-(3-(6-(2-Chlorophenyl)pyridin-3-yl)propyl)thiomorpholin-3-one], the EC50 lay within 500 to 5000 nM.

On to `Cc1csc(-c2ccc(OCCN3C(=O)CCC3=O)cn2)c1` [Example 52, 1-(2-(6-(4-methylthiophen-2-yl)pyridin-3-yloxy)ethyl)pyrrolidine-2,5-dione], for which the EC50 is less than 500 nM. On to `O=C1CCC(=O)N1CCOc1ccc(-c2cccc3ccccc23)nc1` [Example 66, 1-(2-(6-(naphthalen-1-yl)pyridin-3-yloxy)ethyl)pyrrolidine-2,5-dione], for which the EC50 is 500 to 5000 nM.

As for `Cc1cc(-c2ccc(OCCN3C(=O)CCC3=O)cn2)ccc1F` [Example 86, 1-(2-(6-(4-fluoro-3-methylphenyl)pyridin-3-yloxy)ethyl)pyrrolidine-2,5-dione], the EC50 was less than 500 nM. As for `O=C1CCC(=O)N1CCOc1ccc(-c2ccc(F)c(Cl)c2)nc1` [Example 50, 1-(2-(6-(3-Chloro-4-fluorophenyl)pyridin-3-yloxy)ethyl)pyrrolidine-2,5-dione], the EC50 is less than 500 nM.

On to `O=C1CCCCCN1CCCc1ccc(-c2ccc(F)cc2)nc1` [Example 18, 1-(3-(6-(4-Fluorophenyl)pyridin-3-yl)propyl)azepan-2-one], for which the EC50 is less than 500 nM. With `O=C(O)CCCC(=O)NCCCc1ccc(-c2ccc(F)cc2)nc1` [Example 17, 4-(3-(6-(4-Fluorophenyl)pyridin-3-yl)propylcarbamoyl)butyric acid], the EC50 lay within 500 to 5000 nM. As for `N#Cc1cccc(-c2ccc(OCCN3C(=O)CCC3=O)cn2)c1` [Example 64, 1-(2-(6-(3-cyanophenyl)pyridin-3-yloxy)ethyl)pyrrolidine-2,5-dione], the figure is 500 to 5000 nM; as for `O=C1CCC(=O)N1CCNc1nc(-c2ccc(F)cc2)cs1` [Example 34, 1-(2-(4-(4-Fluorophenyl)thiazol-2-ylamino)ethyl)pyrrolidine-2,5-dione], 500 to 5000 nM.

For the origin of these results see patent publication US8518976B2, “Heteroaryl-substituted amides comprising a saturated linker group, and their use as pharmaceuticals” (Sanofi, priority 2005, dated 2013).
